Experimental data from US20080131920A1, “Ion flux in biological processes, and methods related thereto” (priority 2005, published 2008).

Tests used:
[1] = tested on: XNr-1; experiment: Left-sided XNr-1 expression by whole mount in situ hybridization; set-up: species or system Xenopus laevis; conditions: in vivo
Protocol: As outlined above, effects on asymmetry were initially evaluated by inspection of embryo morphology. […] Embryos were treated with the H^+-V-ATPase inhibitory compound concanamycin.
(§1) Whole mount in situ hybridization (WISH) on Xenopus was performed according to standard methods. DNA used to transcribe in situ hybridization probes were XNr-1 (Lohr et al., 1998, Developmental Genetics 23: 194-202; Lowe et al., 1996, Nature 381: 158-161); cShh (Levin et al., 1995, Cell 82: 803-814); cNodal (Levin et al., 1995, Cell 82: 803-814).

[2] = tested on: Vmem of Xenopus blastomeres; experiment: Membrane voltage imaging of blastomeres with DiBAC4(3); type: in vivo, Xenopus laevis; conditions: control vs treated embryos
Excerpt: Embryos marked with Alexa 647 dextran in the right ventral cell (RV) at the four cell stage (to allow orientation with respect to both axes) were monitored using DiBAC4(3) at the 4, 8, 16, and 32 cell stages. At 16 cells, we observed hyperpolarization of the RV quadrant, relative to the LV quadrant. DiBAC4(3) intensity on the left was greater than on the right. This pattern and its embryological timing are consistent with the self-referencing probe data, and with the hypothesis that higher net H^+ efflux from the right side results in a difference in membrane potential across the ventral midline.
We confirmed this in Xenopus blastomeres by imaging Vmem in vivo in control and concanamycin-treated embryos. Predicting that the membrane would depolarize if H^+-V-ATPase-based proton efflux was inhibited, we monitored Vmem using the voltage-reporting dye DiBAC4(3).
Bis-(1,3-[…])-trimethine oxanol (DiBAC4(3), Molecular Probes, Eugene, Oreg.) is a membrane-permeant, fluorescent molecule that accumulates inside a cell in proportion to the membrane voltage. Because it is anionic, the more depolarized a cell, the greater the accumulation of DiBAC4(3) and the greater the intensity of intracellular, relative to extracellular, fluorescence. […]. The dye was excited with 488 nm light from an argon laser and a 20 nm band of emission wavelengths centered at 515 was collected.

[3] = tested on: Sonic hedgehog (Shh), Nodal; experiment: Sidedness of Shh and Nodal expression in chick embryos (in ovo culture, in situ hybridization); conditions: in vivo
Excerpt: We examined the effect of inhibiting H^+-V-ATPase activity on the expression of the early left-sided marker Sonic hedgehog (Shh). Inhibition of H^+-V-ATPase activity following treatment with concanamycin or DCCD specifically randomized the expression of Shh, as well as that of and the downstream marker Nodal. Compared to controls, in which these two markers are always left-sided, concanamycin induced aberrant sidedness of Shh expression in 67% and Nodal in 24% of embryos. Thus, as in Xenopus, H^+-V-ATPase is upstream of the known asymmetric gene cascade, and is required for normal LR patterning in chicks.
To perform a pharmacological screen on chick embryos with minimal disturbance to normal morphogenesis, we optimized a chicken in ovo culture system. A small hole was made on the top of each egg (prior to incubation), and 5 ml of light albumin was removed. […]. Eggs were securely wrapped with Scotch tape, incubated at 37.5° C. to the desired stages, then fixed for analysis of laterality markers by in situ hybridization.
as §1

[4] = tested on: activated caspase-3; experiment: Activated caspase-3 localization (apoptosis) in regenerating tails; type: in vivo, Xenopus laevis; conditions: V-ATPase-inhibited larvae
Protocol: Further experiments were done in the Xenopus system based on the results of the pharmacological screen (see Example 6). […] The V-ATPase (Nishi, 2002, Nature Reviews Molecular Cell Biology 3: 94-103) generates strong pH and voltage gradients at the expense of ATP, when expressed in vesicular or cell plasma membranes.
Xenopus larvae were fixed overnight in MEMFA, heated for 2 hrs at 65° C. in 50% formamide (to inactivate endogenous alkaline phosphatases; this procedure was not done when using fluorescent secondary antibodies), permeabilized in PBTr+0.1% Triton X100 for 30 min, and processed for immunohistochemistry using alkaline phosphatase secondary antibody (Levin, 2004, Journal of Biochemical and Biophysical Methods 58: 85-96) until signal was optimal and background minimal (usually 12 hrs). […] Anti-KCNK1 (a generous gift of Dr. S. A. Goldstein and D. Bockenhauer) was used at 1:500. The 12-101 muscle marker (Gurdon et al., 1985, Cell 41: 913-22; Kintner and Brockes, 1984, Nature 308: 67-9) was used at 1:1 dilution; this monoclonal antibody developed by Jeremy P. Brockes was obtained from the Developmental Studies Hybridoma Bank developed under the auspices of the NICHD and maintained by The University of Iowa, Department of Biological Sciences, Iowa City, Iowa 52242.

[5] = tested on: Xenopus tail regeneration

C/C=C/[C@H]1O[C@@](O)([C@@H](C)[C@H](O)[C@H](C)[C@H]2OC(=O)/C(OC)=C/C(C)=C/[C@@H](C)[C@@H](O)[C@@H](CC)[C@@H](O)[C@H](C)C/C(C)=C/C=C/[C@@H]2OC)C[C@@H](O)[C@@H]1C [concanamycin]
left-sided gene expression of XNr-1 [1]: perturbed the normally left-sided gene expression | effect on Vmem [2]: depolarizes Vmem | aberrant sidedness of Nodal expression, % of embryos [3]: 24% | aberrant sidedness of Shh expression, % of embryos [3]: 67% | expression of Shh and Nodal (sidedness) [3]: randomized | degree of apoptosis vs control [4]: no significant difference | general toxicity ([5]; 150 nM): absence of general toxicity | effect on tail regeneration ([5]; 150 nM, larvae amputated at stage 41): strong inhibition of regeneration | effect on rate or extent of tail regeneration ([5]; compound in medium beginning immediately after tail amputation (stage 40-41)): absence of regeneration | Regeneration Index Treated/Control ([5]; tail regeneration in the compound versus control): 23% | Regeneration Index Treated ([5]; tail regeneration in the compound, RI computed for each dish of embryos): 49
